The source of these data is PubChem BioAssay (NCI).

Among the test systems are NCI-H460 lung; SNB-75 CNS; HOP-92 NSCLC; K-562 leukemia; HCT-116 colon; OVCAR-3 ovarian; IGROV1 ovarian; RXF 393 renal; SK-MEL-5 melanoma; OVCAR-4 ovarian.
Holding throughout (assay): NCI anticancer screen, dose series, 48 h

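Following 48 hours of exposure in 96-well plates, responses at five concentrations were used to interpolate endpoints linearly. GI50: concentration for 50% inhibition of growth. The concentration for full growth arrest is given as TGI.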 Bounds are passed on as bounds.

For `O=C1C2C3C=C4c5ccccc5N(c5ccccc5)C4(C2C(=O)N1c1ccccc1)C1C(=O)N(c2ccccc2)C(=O)C31` (configuration not stated), the TGI in the assay on NCI-H460 lung is more than 100 µM; in the assay with SNB-75 CNS, more than 100 µM; in the assay with HOP-92 NSCLC, 6.29 µM; in the assay with K-562 leukemia, more than 100 µM; in the assay with HCT-116 colon it was more than 100 µM.

As to `Cc1cc2c(C)nn(Cc3ccccc3)c2c(C(=O)O)c1C`, the TGI in the assay with HOP-92 NSCLC, in the assay with OVCAR-3 ovarian, with IGROV1 ovarian, with RXF 393 renal and with HCT-116 colon was more than 100 µM throughout.

In the case of `CN(C(=O)/C=C/c1ccccc1)C1C2CN3CCC(O2)C13` (configuration not stated), the TGI in the assay on NCI-H460 lung, with SNB-75 CNS, with SK-MEL-5 melanoma, in the assay with OVCAR-3 ovarian, in the assay with IGROV1 ovarian and in the assay with K-562 leukemia was more than 100 µM each time. Also, the TGI in the assay with OVCAR-4 ovarian, in the assay with RXF 393 renal and in the assay with HCT-116 colon was more than 100 µM in each case.

For the compound `COc1cc(C)ccc1C(=O)c1ccc(C)cc1OC`, the GI50 with NCI-H460 lung is 3.39 µM; in the assay on SNB-75 CNS, 3.25 µM; with SK-MEL-5 melanoma, 2.99 µM; in the assay on OVCAR-3 ovarian it was 2.1 µM; in the assay with IGROV1 ovarian, 6.58 µM; with K-562 leukemia, 0.619 µM. Besides, the GI50 in the assay with OVCAR-4 ovarian is 45.1 µM; with RXF 393 renal, 1.66 µM; with HCT-116 colon, 3.25 µM. Also, the TGI in the assay on NCI-H460 lung is more than 100 µM; in the assay on SNB-75 CNS, more than 100 µM; with SK-MEL-5 melanoma, 24.6 µM; in the assay with OVCAR-3 ovarian it was 6.55 µM; in the assay with IGROV1 ovarian it was more than 100 µM; in the assay on K-562 leukemia, more than 100 µM. Moreover, the results for the TGI in the assay with OVCAR-4 ovarian, in the assay with RXF 393 renal and in the assay with HCT-116 colon were more than 100 µM, 4.53 µM and more than 100 µM, respectively.

As to `O=C(Oc1cccnc1)c1cccnc1Nc1ccnc(C(F)(F)F)c1`, the GI50 was 40.4 µM in the assay with NCI-H460 lung; more than 100 µM in the assay on HOP-92 NSCLC; 6.99 µM in the assay with SK-MEL-5 melanoma; 18.3 µM in the assay with OVCAR-3 ovarian; 9.51 µM in the assay with IGROV1 ovarian; 5.18 µM with K-562 leukemia. For the same compound, the figures for the GI50 in the assay with OVCAR-4 ovarian, in the assay on RXF 393 renal and in the assay on HCT-116 colon were more than 100 µM, 21.3 µM and 1.76 µM, respectively. The TGI with NCI-H460 lung is more than 100 µM; in the assay with HOP-92 NSCLC, more than 100 µM; with SK-MEL-5 melanoma it was 63.4 µM; with OVCAR-3 ovarian, 62.2 µM; in the assay on IGROV1 ovarian, more than 100 µM; in the assay on K-562 leukemia, more than 100 µM. Besides, the TGI in the assay on OVCAR-4 ovarian was more than 100 µM; with RXF 393 renal, 80.4 µM; in the assay with HCT-116 colon, 3.71 µM.

In the case of `O=C(NCCCOC(=O)CCCCCCCCC(=O)OCCCNC(=O)NC(=O)c1c[nH]c(=O)[nH]c1=O)NC(=O)c1c[nH]c(=O)[nH]c1=O`, the TGI with NCI-H460 lung, with HOP-92 NSCLC, in the assay with SK-MEL-5 melanoma, with OVCAR-3 ovarian, in the assay on IGROV1 ovarian and in the assay on K-562 leukemia was more than 100 µM throughout. Also, the TGI with OVCAR-4 ovarian and in the assay on HCT-116 colon was more than 100 µM in each case.

Turning to `O=C1Nc2ccccc2C1(O)C/C(=N/O)c1ccc2ccccc2c1` (configuration not stated), the TGI in the assay with NCI-H460 lung, in the assay with SNB-75 CNS, in the assay on OVCAR-3 ovarian, in the assay on K-562 leukemia, with OVCAR-4 ovarian and in the assay with RXF 393 renal was more than 100 µM in each case. Moreover, the TGI in the assay with HCT-116 colon is more than 100 µM.

Consider `C[N+](C)(C)CCC(=O)CC[N+](C)(C)C`, for which the TGI in the assay on NCI-H460 lung is 76.9 µM; in the assay with SNB-75 CNS, 73.3 µM; in the assay with SK-MEL-5 melanoma, more than 100 µM; in the assay on OVCAR-3 ovarian it was 33.9 µM; in the assay with IGROV1 ovarian it was more than 100 µM; with K-562 leukemia it was 24.3 µM. Moreover, the TGI worked out at 34.8 µM with OVCAR-4 ovarian, 36 µM in the assay with RXF 393 renal and 33.7 µM in the assay with HCT-116 colon.

Regarding `CC1=C(C(=O)Nc2ccccc2C)C(c2ccc(Cl)cc2)C(C(=O)Nc2ccccc2C)=C(C)N1`, the TGI in the assay on NCI-H460 lung, with HOP-92 NSCLC, in the assay with SK-MEL-5 melanoma, with OVCAR-3 ovarian, with IGROV1 ovarian and in the assay on K-562 leukemia was more than 100 µM throughout. The TGI with OVCAR-4 ovarian, in the assay on RXF 393 renal and in the assay with HCT-116 colon was more than 100 µM each time.

`O=C(O)c1nc(NCc2nc3cc(Cl)ccc3o2)n[nH]1`: the GI50 with NCI-H460 lung, in the assay with SNB-75 CNS, in the assay with SK-MEL-5 melanoma, in the assay on OVCAR-3 ovarian, with IGROV1 ovarian and in the assay on K-562 leukemia was more than 100 µM in each case. The GI50 in the assay with OVCAR-4 ovarian, in the assay with RXF 393 renal and with HCT-116 colon was more than 100 µM each time. For the same compound, the TGI in the assay with NCI-H460 lung, in the assay on SNB-75 CNS, in the assay on SK-MEL-5 melanoma, in the assay with OVCAR-3 ovarian, in the assay on IGROV1 ovarian and in the assay with K-562 leukemia was more than 100 µM throughout. For the same compound, the TGI in the assay with OVCAR-4 ovarian, in the assay with RXF 393 renal and in the assay with HCT-116 colon was more than 100 µM throughout.

For the compound `C/C(=N/O)c1cccc(Nc2cc(-n3nnc4ccccc43)nc3ccccc23)c1`, the GI50 in the assay on NCI-H460 lung was 14.7 µM; with SNB-75 CNS, 35.6 µM; in the assay on SK-MEL-5 melanoma, 3.78 µM; with OVCAR-3 ovarian it was 13 µM; in the assay on IGROV1 ovarian, 29.9 µM; with K-562 leukemia it was 5.91 µM. Besides, the GI50 was 18.8 µM in the assay with OVCAR-4 ovarian, 14.7 µM in the assay on RXF 393 renal and 10.3 µM in the assay on HCT-116 colon. The TGI was 46.7 µM in the assay with NCI-H460 lung; more than 100 µM in the assay on SNB-75 CNS; 13.7 µM with SK-MEL-5 melanoma; 31.7 µM in the assay on OVCAR-3 ovarian; more than 73 µM in the assay with IGROV1 ovarian; 82.1 µM in the assay on K-562 leukemia. Besides, the TGI is more than 100 µM in the assay on OVCAR-4 ovarian, 43 µM in the assay with RXF 393 renal and 26 µM in the assay with HCT-116 colon.

In the case of `CN(C)CCNC(=O)Cn1ccc(=O)c2cc([N+](=O)[O-])ccc21`, the TGI in the assay on NCI-H460 lung, with HOP-92 NSCLC, in the assay on SK-MEL-5 melanoma, with OVCAR-3 ovarian, with IGROV1 ovarian and in the assay on K-562 leukemia was more than 100 µM each time. The TGI in the assay on RXF 393 renal and with HCT-116 colon was more than 100 µM throughout.
